The subject of assay [1] is MIA PaCa-2 human pancreatic carcinoma. In words: MIA PaCa-2 CCK-8 proliferation assay. To be noted: Homo sapiens, MIA PaCa-2, 72 h, MIA PaCa-2 cells. The class given is cell-based. The gist of the method:
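Three KRAS(G12C) lines are used, MIA PaCa-2 at two mutant copies and the NSCLC lines NCI-H358 and NCI-H23 at one. Each compound is titrated 3-fold from 20 μM to 1.02 nM, and proliferation is scored by CCK-8.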

Another assay concerns the target T1, HSP90a protein (Homo sapiens, UniProt P07900).
T1 construct: purchased BPS Bioscience 50298
In words: HSP90α-binding fluorescent polarization (FP) assay, BODIPY-labeled RNK04010 probe. To be noted: FP competition with RNK04010 (BODIPY-labeled), 5 nM, 300 min at 25° C. The essentials: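 Compound dilutions (20 μM to 5.2 nM, 2.5-fold) are combined with 5 nM final labeled probe, and HSP90a N-terminal protein is added last. Plates are shaken briefly and held at 25° C for 120 min (FITC-geldanamycin) or 300 min (BODIPY-RNK04010), then FP is measured.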

In another assay the target is KRAS(G12C) (Homo sapiens, UniProt P01116, G12C). In words: KRAS(G12C)/SOS1 homogeneous time-resolved fluorescence (HTRF) assay. The arrangement: purchased Cisbio 63ADK000CB16PEG. To be noted: absence of GTP, 4° C. for 3 hr, read-out: KRAS (G12C) binding. The gist of the method:
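Three-hour incubation at 4 °C of 3-fold compound dilutions (lowest 1.02 nM) with KRAS(G12C), SOS1 and detection reagents, GTP absent. Disruption of the KRAS(G12C)/SOS1 complex detected by time-resolved fluorescence.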

The structures appear in SMILES notation. A value given as a limit tells only on which side of the number the result lay.

Sequence of KRAS(G12C) (P01116 1-188 isoform P01116-2 G12C): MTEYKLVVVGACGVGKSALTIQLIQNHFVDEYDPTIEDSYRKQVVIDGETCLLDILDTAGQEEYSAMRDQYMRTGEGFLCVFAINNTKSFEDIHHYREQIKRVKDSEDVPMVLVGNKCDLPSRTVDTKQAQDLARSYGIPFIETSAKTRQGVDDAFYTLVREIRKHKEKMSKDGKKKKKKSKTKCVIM

The molecule `C=CC(=O)N1CCN(c2nc(OC[C@@H]3C[C@H](N(C)CCC(=O)N4CCN(Cc5ccc(-n6c(C(=O)NCC(F)(F)F)nnc6-c6cc(C(C)C)c(O)cc6O)cc5)CC4)CN3C)nc3c2CCN(c2cccc4cccc(Cl)c24)C3)C[C@@H]1CC#N` [Compound 337, 4-(4-{[4-(3-{[(3S,5S)-5-({[7-(8-chloronaphthalen-1-yl)-4-[(3S)-3-(cyanomethyl)-4-(prop-2-enoyl)piperazin-1-yl]-5H,6H,8H-pyrido[3,4-d]pyrimidin-2-yl]oxy}methyl)-1-methylpyrrolidin-3-yl](methyl)amino}propanoyl)piperazin-1-yl]methyl}phen-yl)-5-(2,4-dihydroxy-5-isopropylphenyl)-N-(2,2,2-trifluoroethyl)-1,2,4-triazole-3-carboxamide] came in with an EC50 in assay [1] of 0.1 to 1 µM. In addition, the IC50 is < 0.1 µM at HSP90a protein and 0.1 to 1 µM on KRAS(G12C).
In turn, `C=CC(=O)N1CCN(c2nc(OC[C@@H]3C[C@@H](OCC(=O)N4CCC(CN5CCN(Cc6ccc(-n7c(O)nnc7-c7cc(C(C)C)c(O)cc7O)cc6)CC5)CC4)CN3C)nc3c2CCN(c2cccc4cccc(Cl)c24)C3)C[C@@H]1CC#N` [Compound 301, 2-((S)-1-acryloyl-4-(7-(8-chloronaphthalen-1-yl)-2-(((2S,4R)-4-(2-(4-((4-(4-(3-(2,4-dihydroxy-5-isopropylphenyl)-5-hydroxy-4H-1,2,4-triazol-4-yl)benzyl)piperazin-1-yl)methyl)piperidin-1-yl)-2-oxoethoxy)-1-methylpyrrolidin-2-yl)methoxy)-5,6,7,8-tetrahydropyrido[3,4-d]pyrimidin-4-yl)piperazin-2-yl)acetonitrile] returned an EC50 in assay [1] of 0.1 to 1 µM. Further, the IC50 was < 0.1 µM at HSP90a protein and 0.1 to 1 µM at KRAS(G12C).
`C=CC(=O)N1CCN(c2nc(OC[C@@H]3CCCN(C(=O)C4CCN(Cc5ccc(-n6c(O)nnc6-c6cc(C(C)C)c(O)cc6O)cc5)CC4)C3)nc3c2CCN(c2cccc4cccc(Cl)c24)C3)C[C@@H]1CC#N` [Compound 293, 2-((S)-1-acryloyl-4-(7-(8-chloronaphthalen-1-yl)-2-(((R)-1-(1-(4-(3-(2,4-dihydroxy-5-isopropylphenyl)-5-hydroxy-4H-1,2,4-triazol-4-yl)benzyl)piperidine-4-carbonyl)piperidin-3-yl)methoxy)-5,6,7,8-tetrahydropyrido[3,4-d]pyrimidin-4-yl)piperazin-2-yl)acetonitrile] returned an EC50 in assay [1] of 0.1 to 1 µM. Also, the figures for the IC50 at HSP90a protein and at KRAS(G12C) were < 0.1 µM and > 1 µM, respectively.
With `C=CC(=O)N1CCN(c2nc(OCCN3CCN(C(=O)c4ccc(-n5c(O)nnc5-c5cc(C(C)C)c(O)cc5O)cc4)CC3)nc3c2CCN(c2cccc4cccc(Cl)c24)C3)C[C@@H]1CC#N` [Compound 195, (S)-2-(1-acryloyl-4-(7-(8-chloronaphthalen-1-yl)-2-(2-(4-(4-(3-(2,4-dihydroxy-5-isopropylphenyl)-5-hydroxy-4H-1,2,4-triazol-4-yl)benzoyl)piperazin-1-yl)ethoxy)-5,6,7,8-tetrahydropyrido[3,4-d]pyrimidin-4-yl)piperazin-2-yl)acetonitrile, trifluoroacetic acid], in assay [1], the EC50 was > 1 µM. Also, the IC50 on HSP90a protein was < 0.1 µM; on KRAS(G12C), > 1 µM.
Turning to `C=CC(=O)N1CCN(c2nc(OC[C@@H]3C[C@H](N4CCC(C(=O)N5CCN(Cc6ccc(-n7c(O)nnc7-c7cc(C)c(O)cc7O)cc6)CC5)CC4)CN3C)nc3c2CCN(c2cccc4cccc(Cl)c24)C3)C[C@@H]1CC#N` [Compound 321, 2-[(2S)-4-[7-(8-chloronaphthalen-1-yl)-2-{[(2S,4S)-4-{4-[4-({4-[3-(2,4-dihydroxy-5-methylphenyl)-5-hydroxy-1,2,4-triazol-4-yl]phenyl}methyl)piperazine-1-carbonyl]piperidin-1-yl}-1-methylpyrrolidin-2-yl]methoxy}-5H,6H,8H-pyrido[3,4d]-pyrimidin-4-yl]-1-(prop-2-enoyl)piperazin-2-yl]acetonitrile], the EC50 in assay [1] is 0.1 to 1 µM. For the same molecule, the IC50 at HSP90a protein and at KRAS(G12C) was < 0.1 µM in each case.
In the case of `C=CC(=O)N1CCN(c2nc(OC[C@@H]3CN(C(=O)C4CCN(Cc5ccc(-n6c(O)nnc6-c6cc(C(C)C)c(O)cc6O)cc5)CC4)CCN3C)nc3c2CCN(c2cccc4cccc(Cl)c24)C3)C[C@@H]1CC#N` [Compound 202, 2-((S)-1-acryloyl-4-(7-(8-chloronaphthalen-1-yl)-2-(((S)-4-(1-(4-(3-(2,4-dihydroxy-5-isopropylphenyl)-5-hydroxy-4H-1,2,4-triazol-4-yl)benzyl)piperidine-4-carbonyl)-1-methylpiperazin-2-yl)methoxy)-5,6,7,8-tetrahydropyrido[3,4-d]pyrimidin-4-yl)piperazin-2-yl)acetonitrile, trifluoroacetic acid], the EC50 in assay [1] was > 1 µM. The results for the IC50 at HSP90a protein and on KRAS(G12C) were < 0.1 µM and 0.1 to 1 µM, respectively.
For the molecule `C=CC(=O)N1CCN(c2nc(OC[C@@H]3C[C@H](NC(=O)C4CCN(C(=O)C5CCN(Cc6ccc(-n7c(C(=O)NCC(F)(F)C(F)(F)F)nnc7-c7cc(C(C)C)c(O)cc7O)cc6)CC5)CC4)CN3C)nc3c2CCN(c2cccc4cccc(Cl)c24)C3)C[C@@H]1CC#N` [Compound 308, N-[(3S,5S)-5-({[7-(8-chloronaphthalen-1-yl)-4-[(3S)-3-(cyanomethyl)-4-(prop-2-enoyl)piperazin-1-yl]-5H,6H,8H-pyrido[3,4-d]pyrimidin-2-yl]oxy}methyl)-1-methylpyrrolidin-3-yl]-1-[1-({4-[3-(2,4-dihydroxy-5-isopropylphenyl)-5-[(2,2,3,3,3-pentafluoropropyl)carbamoyl]-1,2,4-triazol-4-yl]phenyl}methyl)piperidine-4-carbonyl]piperidine-4-carboxamide], the EC50 in assay [1] is < 0.1 µM. Moreover, the IC50 at HSP90a protein and on KRAS(G12C) was < 0.1 µM in each case.
With `C=CC(=O)N1CCN(c2nc(OC[C@@H]3C[C@H](C(=O)N4CCN(Cc5ccc(-n6c(C(=O)NCC(F)(F)F)nnc6-c6cc(C(C)C)c(O)cc6O)cc5)CC4)CN3C)nc3c2CCN(c2cccc4cccc(Cl)c24)C3)C[C@@H]1CC#N` [Compound 333, 4-[4-({4-[(3S,5S)-5-({[7-(8-chloronaphthalen-1-yl)-4-[(3S)-3-(cyanomethyl)-4-(prop-2-enoyl)piperazin-1-yl]-5H,6H,8H-pyrido[3,4-d]pyrimidin-2-yl]oxy}methyl)-1-methylpyrrolidine-3-carbonyl]piperazin-1-yl}methyl)phenyl]-5-(2,4-dihydroxy-5-isopropylphenyl)-N-(2,2,2-trifluoroethyl)-1,2,4-triazole-3-carboxamide], the half-maximal effective concentration (EC50) in assay [1] is < 0.1 µM. For the same molecule, the figures for the IC50 on HSP90a protein and at KRAS(G12C) were < 0.1 µM and 0.1 to 1 µM, respectively.
With `C=CC(=O)N1CCN(c2nc(OC[C@@H]3C[C@H](N4CCC(C(=O)NCCOCCOc5ccc(-n6c(O)nnc6-c6cc(CC)c(O)cc6O)cc5)CC4)CN3C)nc3c2CCN(c2cccc4cccc(Cl)c24)C3)C[C@@H]1CC#N` [Compound 335, 1-[(3S,5S)-5-({[7-(8-chloronaphthalen-1-yl)-4-[(3S)-3-(cyanomethyl)-4-(prop-2-enoyl)piperazin-1-yl]-5H,6H,8H-pyrido[3,4-d]pyrimidin-2-yl]oxy}methyl)-1-methylpyrrolidin-3-yl]-N-[2-(2-{4-[3-(5-ethyl-2,4-dihydroxyphenyl)-5-hydroxy-1,2,4-tri-azol-4-yl]phenoxy}ethoxy)ethyl]piperidine-4-carboxamide], in assay [1], the EC50 is > 1 µM. The IC50 at HSP90a protein and at KRAS(G12C) was < 0.1 µM each time.
The molecule `C=CC(=O)N1CCN(c2nc(OC[C@@H]3C[C@H](N4CCC(C(=O)N5CCN(CCNC(=O)c6nnc(-c7cc(C(C)C)c(O)cc7O)n6-c6ccccc6)CC5)CC4)CN3C)nc3c2CCN(c2cccc4cccc(Cl)c24)C3)C[C@@H]1CC#N` [Compound 320, N-[2-(4-{1-[(3S,5S)-5-({[7-(8-chloronaphthalen-1-yl)-4-[(3S)-3-(cyanomethyl)-4-(prop-2-enoyl)piperazin-1-yl]-5H,6H,8H-pyrido[3,4-d]pyrimidin-2-yl]oxy}methyl)-1-methylpyrrolidin-3-yl]piperidine-4-carbonyl}piperazin-1-yl)ethyl]-5-(2,4-dihy-droxy-5-isopropylphenyl)-4-phenyl-1,2,4-triazole-3-carboxamide] came in with an EC50 in assay [1] of 0.1 to 1 µM. Further, the IC50 at HSP90a protein and at KRAS(G12C) was < 0.1 µM each time.
Take `C=CC(=O)N1CCN(c2nc(OCCN3CCC4(CC3)CCN(C(=O)C3CCN(Cc5ccc(-n6c(C(N)=O)nnc6-c6cc(C(C)C)c(O)cc6O)cc5)CC3)CC4)nc3c2CCN(c2cccc4cccc(Cl)c24)C3)C[C@@H]1CC#N` [Compound 210, (S)-4-(4-((4-(9-(2-((4-(4-acryloyl-3-(cyanomethyl)piperazin-1-yl)-7-(8-chloronaphthalen-1-yl)-5,6,7,8-tetrahydropyrido[3,4-d]pyrimidin-2-yl)oxy)ethyl)-3,9-diazaspiro[5.5]undecane-3-carbonyl)piperidin-1-yl)methyl)phenyl)-5-(2,4-dihydroxy-5-isopropylphenyl)-4H-1,2,4-triazole-3-carboxamide]: the EC50 in assay [1] was < 0.1 µM. The IC50 on HSP90a protein and at KRAS(G12C) was < 0.1 µM each time.

Values taken from US20230391772A1, “METHODS AND COMPOSITIONS FOR TARGETED PROTEIN DEGRADATION” (Ranok Therapeutics (Hangzhou) Co. Ltd., priority 2020, published 2023).
